# “Also recorded” adds a separate entry of the source. Marks after values point to notes of the source that are not given here. Where no end group is shown, it is not given here.
# How the values were obtained:
# [1] = tested on: lactating Holstein cows; experiment: Proof-of-concept: luteal regression by IVG PGF from single-chamber prototype device; format: in vivo, cow; conditions: two 50-mg doses of PGF 12 hours apart via prototype (e-Synch PGF); FIG. 13
# Protocol: Lactating Holstein cows were randomized to receive two 50-mg doses of PGF 12 hours apart, or an equal amount of saline solution (negative control), or two 25-mg doses of PGF IVG (IVG positive control), or a single 25-mg dose of PGF im (im positive control). There were four cows in each group (except for saline, two cows). […] In short, administration worked as well as standard injections.
# [2] = tested on: cows; experiment: Larger experiment: physiological outcomes for cows treated with PGF im or IVG; format: in vivo, cow
# Excerpt: The PGF experiments' ability to show equal luteal regression with im and IVG administration was limited by small N. Data from a larger, more recent experiment supports non-inferiority for IVG compared to im delivery of PGF to induce luteal regression. […] [table]
# [3] = tested on: lactating Holstein cows; experiment: In-vivo validation of automated IVG device: circulating P4 after PGF2α; parameters: species or system cow
# Excerpt: The objective was to develop and validate an electronically-controlled hormone delivery device for reproductive control of cattle. […] The IVG device comprises an outer 3D-printed plastic housing, fluid reservoirs connected to delivery pumps and tubing, a programmable circuit board, and a retention mechanism. For in-vitro testing, 4 pumps were programmed to release different target volumes (0.1, 0.2, 0.5, 1.0, and 2.0 g) in 4 replicates (n=80). A Bland-Altman plot was constructed to assess the magnitude of disagreement between expected and delivered volumes. Observations fell within acceptable limits of agreement (1.96 SD) >95% of the time, indicating overall good agreement (mean difference=−0.005 g). To assess in-vivo performance of the IVG device, lactating Holstein cows with at least 1 corpus luteum ≥15 mm in diameter were randomly allocated to 1 of 3 treatments: IM-PGF (n=6); two 25 mg intramuscular doses of PGF (Dinoprost) 24 h apart, DEV-PGF (n=6); four 25 mg doses of PGF released automatically by the IVG device every 12 h, and DEV-CTL (n=4); insertion of an empty IVG device (placebo control). Blood samples were collected at 0, 12, 24, 36, 48, and 72 h after treatment. Data was analyzed by ANOVA with repeated measures in SAS. All devices (12/12) remained in situ until removed at 48-h. Progesterone (P4) concentrations from 0 to 72 h were affected by treatment, time, and their interaction.
# To assess IVG device performance in vivo, lactating nonpregnant primiparous and multiparous Holstein cows from the dairy unit of the Cornell University Ruminant Center (Harford, N.Y.) were enrolled in an experiment. Cows were housed in freestall barns with concrete flooring, self-locking head gates, and fans and sprinklers in the feedline. Cows were milked thrice daily at approximately 8-h intervals and were fed a TMR once a day with ad libitum access to feed and water.
# All cows enrolled received a GnRH treatment (200 μg of gonadorelin acetate given intramuscular, Gonabreed, Parnell Pharmaceuticals, Overland Park, Kans., USA) at 40±3 DIM. Seven days later, transrectal ultrasonography (TUS) of the ovaries was performed using a 7.5-MHz linear probe (Ibex Pro; E. I. Medical Imagining, Loveland, Colo.). Cows with […] corpus luteum (CL) ≥15 mm in diameter (n=16) were randomly allocated to 1 of 3 treatments: IM-PGF (n=6), DEV-PGF (n=6), and DEV-CTRL (n=4). Cows in IM-PGF received 2 treatments of 25 mg of PGF2α (12.5 mg/mL of dinoprost tromethamine; Lutalyse HighCon, Zoetis, New York, N.Y.) 24 h apart as a 2 mL injection in the semimembranosus or semitendinosus muscle. Cows in DEV-PGF received 1 IVG device programmed to automatically release 4 doses of 25 mg of PGF2α at ˜12 h intervals (first dose released at time 0). Cows in the DEV-CTRL treatment received an IVG device without PGF2α to serve as a placebo control for the presence of the device in the vagina. All devices were removed at 48 h after insertion.
# Blood samples (˜8 to 9 mL) were collected at time 0 and at 12, 24, 36, 48, and 72 h after treatment by puncture of caudal blood vessels using heparinized evacuated tubes (Vacutainer; BD, Franklin Lakes, N.J.). Samples were centrifuged at 2,000×g for 20 min at 4° C. Plasma aliquots were harvested and stored at −20° C. until assayed for progesterone (P4) in duplicate in 3 RIA assays performed as described in Beam, S. W., et al., “Energy balance and ovarian follicle development prior to the first ovulation postpartum in dairy cows receiving three levels of dietary fat.” Biol. Reprod. 56:133-142 (1997), the disclosure of which is incorporated herein by reference in its entirety. The average intra-assay coefficient of variation (CV) was 13.2% whereas the interassay CV was 17.0%. […]
# [4] = tested on: lactating Holstein cows; experiment: Luteal regression and plasma P4 after IVG (catheter) or im PGF, first study and follow-up; format: in vivo, cow; conditions: for CLR % (complete luteal regression, P4 < 1 ng/mL) / P4 (ng/mL): PGF25-2X-IVG: two IVG boluses 25 mg PGF 12 h apart
# [5] = tested on: lactating Holstein cows; experiment: as above; format: in vivo, cow
# Protocol: Catheters were employed to deliver IVG hormones in lactating Holstein cows. […] In a first study, regression of the corpus luteum (“CL regression”) and plasma P4 concentrations after IVG delivery of 25, 50, or 125 mg PGF (Dinoprost) or of saline 7.5 days after induction of ovulation by Ovsynch injections was evaluated. A positive control group received 25 mg of PGF im (i.e., by intramuscular injection), enabling a comparison of outcomes with im PGF to those with IVG PGF.
# [6] = tested on: lactating Holstein cows; experiment: LH response after IVG delivery of GnRH; format: in vivo, cow; conditions: citric acid as absorption enhancer
# Protocol: LH response of lactating Holstein cows after IVG delivery of GnRH was evaluated. Cows received IVG GnRH (Gonadorelin) at a standard dose of 100 μg, or at doses of 500 or 1,000 μg without and with citric acid as an absorption enhancer. A positive control group received 100 μg GnRH im and a negative control group received saline IVG.
# [7] = IVG: two 25 mg doses of PGF 12 h apart
# [8] = PGF25-IM: single im bolus 25 mg PGF, 60 h after treatment
# [9] = PGF25-IM: single im bolus 25 mg PGF, 72 h after treatment
# [10] = PGF25-IVG: single IVG bolus 25 mg PGF, 60 h after treatment
# [11] = PGF25-IVG: single IVG bolus 25 mg PGF, 72 h after treatment
compound,measurement,setting,value
"CCCCC[C@H](O)/C=C/[C@@H]1[C@@H](C/C=C\CCCC(=O)O)[C@@H](O)C[C@H]1O [PGF, prostaglandin F2α]",pattern of P4 decline,[1],consistent with CL regression and similar to that of cows in the positive control groups
same,"Estrus after PGF, % (increased physical activity within 72 h of treatment)",[2]; IM: 25 mg of PGF im,47.0%
same,"Ovulation, % (in response to GnRH given within 72 h of PGF treatment)",[2]; IM: 25 mg of PGF im,88.0%
same,P4 (ng/mL) at 48 h,[2]; IM: 25 mg of PGF im,0.4 ± 0.1 ng/mL
same,P4 (ng/mL) at 72 h,[2]; IM: 25 mg of PGF im,0.4 ± 0.1 ng/mL
same,"CL regression, % (P4 from >1 ng/mL at treatment to <0.5 ng/mL 72 h after)","[2]; IM: 25 mg of PGF im (Dinoprost), n = 169",81.1%
same,"Estrus after PGF, % (increased physical activity within 72 h of treatment)",[2]; [7],51.1%
same,"Ovulation, % (in response to GnRH given within 72 h of PGF treatment)",[2]; [7],84.1%
same,P4 (ng/mL) at 48 h,[2]; [7],0.5 ± 0.1 ng/mL
same,P4 (ng/mL) at 72 h,[2]; [7],0.6 ± 0.1 ng/mL
same,"CL regression, % (P4 from >1 ng/mL at treatment to <0.5 ng/mL 72 h after)","[2]; IVG: two 25 mg doses of PGF 12 h apart (Dinoprost), n = 179",81.0%
same,"P4, one cow","[3]; DEV-PGF (four 25 mg doses by IVG device every 12 h), 36 h after treatment",1.20 ng/mL
same,P4 concentrations compared with placebo device control,"[3]; DEV-PGF and IM-PGF vs DEV-CTRL, from 24 to 72 h",lesser P4 than cows in DEV-CTL; also recorded: lesser concentrations of P4 than cows in the DEV-CTRL treatment
same,"P4, all other cows","[3]; DEV-PGF and IM-PGF, 36 h after treatment",< 1 ng/mL
same,"P4, all other cows, end of the sampling period","[3]; DEV-PGF and IM-PGF, 72 h",< 0.5 ng/mL
same,luteal regression by PGF delivered automatically by the device,"[3]; DEV-PGF, lactating dairy cows",successful induction of luteal regression; also recorded: complete luteal regression
same,"P4, one cow","[3]; IM-PGF (two 25 mg im doses 24 h apart), 36 h after treatment",1.21 ng/mL
same,"P4, one cow, end of the sampling period","[3]; IM-PGF, 72 h",0.50 ng/mL
same,"P4 concentrations, DEV-PGF compared with IM-PGF","[3]; entire sampling period, 0 to 72 h",did not differ
same,"CLR % (complete luteal regression, P4 < 1 ng/mL)",[4]; 60 h after treatment,100^b %
same,P4 (ng/mL),[4]; 60 h after treatment,0.19 ± 0.04^c ng/mL
same,"CLR % (complete luteal regression, P4 < 1 ng/mL)",[4]; 72 h after treatment,100^b %
same,P4 (ng/mL),[4]; 72 h after treatment,0.21 ± 0.07^c ng/mL
same,"CL regression, single bolus of IVG PGF compared with im PGF","[4]; single IVG bolus (25, 50 or 125 mg) vs 25 mg im",less effectual than im PGF
same,cows that experienced complete CL regression,"[4]; two 25 mg boluses of IVG PGF 12 hours apart, follow-up experiment",100%
same,blood/plasma progesterone after treatment compared with im PGF,"[4]; two IVG boluses 25 mg PGF 12 h apart (PGF25-2X-IVG) vs PGF25-IM, FIG. 10",indistinguishable from a single dose intramuscular injection of PGF
same,luteolytic response compared with single im injection,"[4]; two IVG boluses of PGF 12 hours apart, summary of the PGF experiments",comparable luteolytic response to a single intramuscular injection of PGF
same,"CLR % (complete luteal regression, P4 < 1 ng/mL)",[5]; [8],86^b %
same,P4 (ng/mL),[5]; [8],0.67 ± 0.23^bc ng/mL
same,"CLR % (complete luteal regression, P4 < 1 ng/mL)",[5]; [9],86^b %
same,P4 (ng/mL),[5]; [9],0.57 ± 0.24^c ng/mL
same,"CLR % (complete luteal regression, P4 < 1 ng/mL)",[5]; [10],42^b %
same,P4 (ng/mL),[5]; [10],1.74 ± 0.50^b ng/mL
same,"CLR % (complete luteal regression, P4 < 1 ng/mL)",[5]; [11],42^b %
same,P4 (ng/mL),[5]; [11],2.24 ± 0.64^b ng/mL
"gonadotropin releasing hormone (QHWSYGLRPG; ends and bridges not checked; UniProt P01148 24-33, looked up) [GnRH, releasing hormone that triggers LH release]",effect of adding 10% citric acid to the GnRH mixture,[6],necessary for efficacy of IVG GnRH

# From patent US20230149146A1, “AN AUTOMATED CONTROLLED RELEASE DEVICE FOR LIVESTOCK MANAGEMENT AND METHODS OF USE THEREOF” (CORNELL UNIVERSITY, priority 2020, published 2023)
